Patent US8846929B2, “Substituted-quinoxaline-type piperidine compounds and the uses thereof” (priority 2007, dated 2014)

The compounds below were run against human opioid receptor-like (ORL-1) (Homo sapiens (Human), UniProt P41146) (assay: In vitro ORL-1 receptor [35S]GTPγS functional assay).
Format: biochemical

Chain of human opioid receptor-like (ORL-1) (P41146 whole entry): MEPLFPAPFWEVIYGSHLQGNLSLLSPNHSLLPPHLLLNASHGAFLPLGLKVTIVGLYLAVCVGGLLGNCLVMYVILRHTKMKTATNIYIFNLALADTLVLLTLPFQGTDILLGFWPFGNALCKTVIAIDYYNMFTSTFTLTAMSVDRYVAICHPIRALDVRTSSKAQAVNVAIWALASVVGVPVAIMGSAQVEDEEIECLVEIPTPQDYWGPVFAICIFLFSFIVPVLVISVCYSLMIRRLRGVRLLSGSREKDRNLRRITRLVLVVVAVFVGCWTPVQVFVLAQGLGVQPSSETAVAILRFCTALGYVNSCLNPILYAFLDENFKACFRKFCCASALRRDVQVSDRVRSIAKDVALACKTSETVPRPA

Going from `CNC(=O)c1nc2ccccc2n(C2CCN(C3CCCCCCC3)CC2)c1=O` [compound 78] to `CONC(=O)c1nc2ccccc2n(C2CCN(C3CCCCCCC3)CC2)c1=O` [compound 83], the EC50 rises from 363 ± 20 nM to 558 ± 77 nM (1.5-fold). The first is the more potent here.

Compared with `O=C(O)c1ccc(CNC(=O)c2nc3ccccc3n([C@H]3C[C@H]4CC[C@@H](C3)N4C3CCCCCCC3)c2=O)nc1` [compound 318, 6-((4-((endo)-8-cyclooctyl-8-azabicyclo[3.2.1]octan-3-yl)-3-oxo-3 ,4-dihydroquinoxaline-2-carboxamido)methyl)nicotinic acid], `O=C(O)c1ccc(CNC(=O)c2nc3ccccc3n([C@H]3C[C@H]4CC[C@@H](C3)N4C3CCCCCCC3)c2=O)cc1` [compound 314] is 1.9-fold higher in EC50: 236 ± 13 nM for the first, 453 ± 66 nM for the second.

`CC1(N2[C@@H]3CCC[C@H]2C[C@@H](n2c(=O)c(C(=O)O)nc4ccccc42)C3)CCCCCCC1` [compound 335] and `O=C(O)c1nc2ccccc2n([C@H]2C[C@H]3CCCC[C@@H](C2)N3C2/C=C\CCCCC2)c1=O` (stereo partly drawn) [compound 359] are within 1.5-fold of each other in EC50: 174 ± 10 nM for the first, 134 ± 2.7 nM for the second.

First: NC(=O)C1CCCN(c2nc3ccccc3n(C3CCN(C4CCCCCCC4)CC3)c2=O)C1 (stereo not drawn) [compound 60]
Second: O=c1c(N2CC[C@@H](O)C2)nc2ccccc2n1C1CCN(C2CCCCCCC2)CC1 [compound 92]
The EC50 of the first is 4.2-fold higher: 2140 ± 661 nM for the first, 510 ± 100 nM for the second. The second is the more potent here.

Compared with `O=C(O)CC(NC(=O)c1nc2ccccc2n([C@H]2C[C@H]3CC[C@@H](C2)N3C2CCCCCCC2)c1=O)C(=O)O` (stereo partly drawn) [compound 310, 2-(4-((endo)-8-cyclooctyl-8-azabicyclo[3.2.1]octan-3-yl)-3-oxo-3,4-dihydroquinoxaline-2-carboxamido)succinic acid], `CC(NC(=O)c1nc2ccccc2n([C@H]2C[C@H]3CC[C@@H](C2)N3C2CCCCCCC2)c1=O)C(=O)O` (stereo partly drawn) [compound 312, 2-(4-((endo)-8-cyclooctyl-8-azabicyclo[3.2.1]octan-3-yl)-3-oxo-3,4-dihydroquinoxaline-2-carboxamido)propanoic acid] is 3-fold lower in EC50: 419 ± 62 nM for the first, 138 ± 8.1 nM for the second. The second is the more potent here.

Going from `CONC(=O)c1nc2ccccc2n([C@H]2C[C@H]3CC[C@@H](C2)N3C2CCCCCCC2)c1=O` [compound 121] to `CN(CC(=O)O)C(=O)c1nc2ccccc2n([C@H]2C[C@H]3CC[C@@H](C2)N3C2CCCCCCC2)c1=O` [compound 307, 2-(4-((endo)-8-cyclooctyl-8-azabicyclo[3.2.1]octan-3-yl)-N-methyl-3-oxo-3,4-dihydroquinoxaline-2-carboxamido)acetic acid], the EC50 rises from 265 ± 27 nM to 400 ± 72 nM (1.5-fold).

First: CC(=O)N1CC2CN(c3nc4ccccc4n(C4CCN(C5CCCCCCC5)CC4)c3=O)CC2C1 (stereo not drawn) [compound 13, 3-(5-acetylhexahydropyrrolo[3,4-c]pyrrol-2(1H)-yl)-1-(1-cyclooctylpiperidin-4-yl)quinoxalin-2(1H)-one]
Second: CC(=O)N[C@@H]1CCN(c2nc3ccccc3n(C3CCN(C4CCCCCCC4)CC3)c2=O)C1 [compound 37]
The EC50 of the first is 6.4-fold higher: 1690 ± 166 nM for the first, 265 ± 31 nM for the second. The second is the more potent here.

Going from `CC(C)(C)OC(=O)NC1CCN(c2nc3ccccc3n(C3CCN(C4CCCCCCC4)CC3)c2=O)CC1` [compound 21] to `COC(=O)C1CCN(c2nc3ccccc3n(C3CCN(C4CCCCCCC4)CC3)c2=O)CC1` [compound 16], the EC50 rises from 1470 ± 50 nM to 3750 ± 93 nM (2.6-fold).

`CN(CC(O)CO)c1nc2ccccc2n(C2CCN(C3CCCCCCC3)CC2)c1=O` (stereo not drawn) [compound 65] and `O=c1c(NC[C@@H](O)CO)nc2ccccc2n1C1CCN(C2CCCCCCC2)CC1` [compound 54] are within 1.5-fold of each other in EC50: 348 ± 22 nM for the first, 464 ± 28 nM for the second.

Compared with `CCOC(=O)c1nc2ccccc2n(C2CCN(C3CCCCCCC3)CC2)c1=O` [compound 70, ethyl 4-(1-cyclooctylpiperidin-4-yl)-3-oxo-3,4-dihydroquinoxaline-2-carboxylate], `CCOC(=O)CNc1nc2ccccc2n(C2CCN(C3CCCCCCC3)CC2)c1=O` [compound 57] is 1.6-fold lower in EC50: 788 ± 44 nM for the first, 486 ± 34 nM for the second.

Compared with `O=C1CCN(c2nc3ccccc3n(C3CCN(C4CCCCCCC4)CC3)c2=O)N1` [compound 119, 1-(1-cyclooctylpiperidin-4-yl)-3-(3-oxopyrazolidin-1-yl)quinoxalin-2(1H)-one], `O=C1CN(c2nc3ccccc3n(C3CCN(C4CCCCCCC4)CC3)c2=O)CCN1` [compound 18, 1-(1-cyclooctylpiperidin-4-yl)-3-(3-oxopiperazin-1-yl)quinoxalin-2(1H)-one] is 2.9-fold lower in EC50: 3660 ± 171 nM for the first, 1280 ± 84 nM for the second. The second is the more potent here.

`O=C(O)C1CCCN1C(=O)c1nc2ccccc2n([C@H]2C[C@H]3CC[C@@H](C2)N3C2CCCCCCC2)c1=O` (stereo partly drawn) [compound 306, 1-(4-((endo)-8-cyclooctyl-8-azabicyclo[3.2.1]octan-3-yl)-3-oxo-3,4-dihydroquinoxaline-2-carbonyl)pyrrolidine-2-carboxylic acid] and `CSCCC(NC(=O)c1nc2ccccc2n([C@H]2C[C@H]3CC[C@@H](C2)N3C2CCCCCCC2)c1=O)C(=O)O` (stereo partly drawn) [compound 309, 2-(4-((endo)-8-cyclooctyl-8-azabicyclo[3.2.1]octan-3-yl)-3-oxo-3,4-dihydroquinoxaline-2-carboxamido)-4-(methylthio)butanoic acid] are within error of each other in EC50: 548 ± 57 nM for the first, 659 ± 155 nM for the second.

`COC(=O)c1ccc2c(c1)CN(c1nc3ccccc3n(C3CCN(C4CCCCCCC4)CC3)c1=O)CC2` [compound 44] and `CC(=O)N[C@H]1CCN(c2nc3ccccc3n(C3CCN(C4CCCCCCC4)CC3)c2=O)C1` [compound 59] are within error of each other in EC50: 392 ± 6.6 nM for the first, 383 ± 63 nM for the second.

`NC(=O)CCNc1nc2ccccc2n(C2CCN(C3CCCCCCC3)CC2)c1=O` [compound 47] and `NC(=O)CNc1nc2ccccc2n(C2CCN(C3CCCCCCC3)CC2)c1=O` [compound 32] are within error of each other in EC50: 419 ± 12.7 nM for the first, 406 ± 42 nM for the second.

Compared with `CS(=O)(=O)NC1CCN(c2nc3ccccc3n(C3CCN(C4CCCCCCC4)CC3)c2=O)CC1` [compound 30], `CS(=O)(=O)N[C@@H]1CCN(c2nc3ccccc3n(C3CCN(C4CCCCCCC4)CC3)c2=O)C1` [compound 66] is 6.5-fold lower in EC50: 699 ± 19 nM for the first, 108 ± 15.1 nM for the second.

Going from `N=C(N)NCCNc1nc2ccccc2n(C2CCN(C3CCCCCCC3)CC2)c1=O` [compound 26] to `CC(C)(C)OC(=O)NCCNc1nc2ccccc2n(C2CCN(C3CCCCCCC3)CC2)c1=O` [compound 7, tert-butyl 2-(4-(1-cyclooctylpiperidin-4-yl)-3-oxo-3,4-dihydroquinoxalin-2-ylamino)ethylcarbamate], the EC50 rises from 109 ± 5.9 nM to 979 ± 40 nM (9-fold). The first is the more potent here.

`CC(C)(C)OC(=O)N1CCN(c2nc3ccccc3n(C3CCN(C4CCCCCCC4)CC3)c2=O)CC1` [compound 8, tert-butyl 4-(4-(1-cyclooctylpiperidin-4-yl)-3-oxo-3,4-dihydroquinoxalin-2-yl)piperazine-1-carboxylate] and `CC(C)(C)OC(=O)Nc1nc2ccccc2n(C2CCN(C3CCCCCCC3)CC2)c1=O` [compound 14, tert-butyl 4-(1-cyclooctylpiperidin-4-yl)-3-oxo-3,4-dihydroquinoxalin-2-ylcarbamate] are within error of each other in EC50: 4560 ± 1120 nM for the first, 4650 ± 238 nM for the second.

Going from `NC(=O)CNc1nc2ccccc2n(C2CCN(C34CC5CC(CC(C5)C3)C4)CC2)c1=O` [compound 64] to `O=c1c(NC[C@@H](O)CO)nc2ccccc2n1C1CCN(C23CC4CC(CC(C4)C2)C3)CC1` [compound 89], the EC50 rises from 457 ± 90 nM to 806 ± 85 nM (1.8-fold).

Compared with `O=C(O)c1nc2ccccc2n([C@H]2C[C@H]3CCC[C@@H](C2)N3CCC2CCCCC2)c1=O` [compound 372], `O=C(O)c1nc2ccc(F)cc2n([C@H]2C[C@H]3CC[C@@H](C2)N3C2CCCCCCC2)c1=O` [compound 133] is 2.2-fold higher in EC50: 214 ± 57 nM for the first, 473 ± 27 nM for the second. The first is the more potent here.

Compared with `N#Cc1nc2ccccc2n(C2CCN(C3CCCCCCC3)CC2)c1=O` [compound 88], `CN(C)c1nc2ccccc2n(C2CCN(C3CCCCCCC3)CC2)c1=O` [compound 2, 1-(1-cyclooctylpiperidin-4-yl)-3-(dimethylamino)quinoxalin-2(1H)-one] is 2.9-fold higher in EC50: 201 ± 27 nM for the first, 580 ± 92 nM for the second. The first is the more potent here.

First: NC(=O)[C@H](CO)Nc1nc2ccccc2n(C2CCN(C3CCCCCCC3)CC2)c1=O [compound 33]
Second: O=c1c(NC[C@H](O)CO)nc2ccccc2n1C1CCN(C2CCCCCCC2)CC1 [compound 55]
The EC50 of the first is 2-fold lower: 211 ± 21 nM for the first, 421 ± 50 nM for the second. The first is the more potent here.

Compared with `CC(C)CCC(C)N1[C@@H]2CCC[C@H]1C[C@@H](n1c(=O)c(C(=O)O)nc3ccccc31)C2` (stereo partly drawn) [compound 303], `CC(C)CC(C)N1[C@@H]2CCC[C@H]1C[C@@H](n1c(=O)c(C(=O)O)nc3ccccc31)C2` (stereo partly drawn) [compound 304] is 2-fold lower in EC50: 298 ± 23 nM for the first, 150 ± 6 nM for the second.

Compared with `CC(=O)N1CCC(Nc2nc3ccccc3n(C3CCN(C4CCCCCCC4)CC3)c2=O)CC1` [compound 49], `CC(=O)Nc1nc2ccccc2n(C2CCN(C3CCCCCCC3)CC2)c1=O` [compound 17, N-(4-(1-cyclooctylpiperidin-4-yl)-3-oxo-3,4-dihydroquinoxalin-2-yl)acetamide] is 9.7-fold higher in EC50: 808 ± 110 nM for the first, 7870 ± 2230 nM for the second.

Going from `O=C(O)CN(CCNC(=O)c1nc2ccccc2n([C@H]2C[C@H]3CC[C@@H](C2)N3C23CC4CC(CC(C4)C2)C3)c1=O)CC(=O)O` [compound 325] to `O=C(O)c1nc2ccccc2n([C@H]2C[C@H]3CCC[C@@H](C2)N3C2C3CC4CC(C3)CC2C4)c1=O` (stereo partly drawn) [compound 363], the EC50 rises from 109 ± 14 nM to 4090 ± 1160 nM (38-fold).

`O=C(NCC(O)CO)c1nc2ccccc2n(C2CCN(C3CCCCCCC3)CC2)c1=O` (stereo not drawn) [compound 79] and `O=c1c(NCC(O)CO)nc2ccccc2n1C1CCN(C2CCCCCCC2)CC1` (stereo not drawn) [compound 25, 1-(1-cyclooctylpiperidin-4-yl)-3-(2,3-dihydroxypropylamino)quinoxalin-2(1H)-one] are within 1.5-fold of each other in EC50: 703 ± 39 nM for the first, 781 ± 26 nM for the second.

Going from `CCOC(=O)CN(C)c1nc2ccccc2n(C2CCN(C3CCCCCCC3)CC2)c1=O` [compound 61] to `NCC(O)CNc1nc2ccccc2n(C2CCN(C3CCCCCCC3)CC2)c1=O` (stereo not drawn) [compound 58], the EC50 falls from 1230 ± 238 nM to 151 ± 7.9 nM (8.1-fold). The second is the more potent here.

Going from `COC(=O)[C@@H]1CCCN1c1nc2ccccc2n(C2CCN(C3CCCCCCC3)CC2)c1=O` [compound 27] to `COC(=O)[C@@H]1C[C@@H](O)CN1c1nc2ccccc2n(C2CCN(C3CCCCCCC3)CC2)c1=O` [compound 28], the EC50 rises from 969 ± 89 nM to 1880 ± 285 nM (1.9-fold).

Compared with `O=C(Nc1ccc(=O)[nH]c1)c1nc2ccccc2n(C2CCN(C3CCCCCCC3)CC2)c1=O` [compound 82], `O=C(c1nc2ccccc2n(C2CCN(C3CCCCCCC3)CC2)c1=O)N1CC2CNCC2C1` (stereo not drawn) [compound 73, 1-(1-cyclooctylpiperidin-4-yl)-3-(octahydropyrrolo[3,4-c]pyrrole-2-carbonyl)quinoxalin-2(1H)-one] is 2.1-fold higher in EC50: 181 ± 9.8 nM for the first, 377 ± 115 nM for the second.

`O=C(O)c1cccc(CNc2nc3ccccc3n([C@H]3C[C@H]4CC[C@@H](C3)N4C3CCCCCCC3)c2=O)c1` [compound 305] showed an EC50 of 394 ± 53 nM.
